Measured values from the kinase profiling compilation of Christmann-Franck et al. (2016).

Columns and labels:
Assay in all cases: radiometric filter-binding kinase assay, Kinase HotSpot
Settings in all cases: compound 0.5 µM; ATP 10 µM
TSSK2 (human) = TSSK2 (human) (UniProt Q96PF2)
MAP3K2 (human) = MAP3K2 (human) (UniProt Q9Y2U5)
PDGFRB (human) = PDGFRB (human) (UniProt P09619)
TAOK2 (human) = TAOK2 (human) (UniProt Q9UL54)
IKBKB (human) = IKBKB (human) (UniProt O14920)
RPS6KA6 KD1 KD2 (human) = RPS6KA6 KD1 KD2 (human) (UniProt Q9UK32)
PLK3 (human) = PLK3 (human) (UniProt Q9H4B4)
EPHB2 (human) = EPHB2 (human) (UniProt P29323)
GSK3B (human) = GSK3B (human) (UniProt P49841)
MAP3K7 TAB1 (human) = MAP3K7 TAB1 (human) (UniProt O43318+Q15750)
RPS6KA5 KD2 (human) = RPS6KA5 KD2 (human) (UniProt O75582)
AURKC (human) = AURKC (human) (UniProt Q9UQB9)
RET (human) = RET (human) (UniProt P07949)
TXK (human) = TXK (human) (UniProt P42681)
Chain of TXK (human) (P42681 whole entry, looked up): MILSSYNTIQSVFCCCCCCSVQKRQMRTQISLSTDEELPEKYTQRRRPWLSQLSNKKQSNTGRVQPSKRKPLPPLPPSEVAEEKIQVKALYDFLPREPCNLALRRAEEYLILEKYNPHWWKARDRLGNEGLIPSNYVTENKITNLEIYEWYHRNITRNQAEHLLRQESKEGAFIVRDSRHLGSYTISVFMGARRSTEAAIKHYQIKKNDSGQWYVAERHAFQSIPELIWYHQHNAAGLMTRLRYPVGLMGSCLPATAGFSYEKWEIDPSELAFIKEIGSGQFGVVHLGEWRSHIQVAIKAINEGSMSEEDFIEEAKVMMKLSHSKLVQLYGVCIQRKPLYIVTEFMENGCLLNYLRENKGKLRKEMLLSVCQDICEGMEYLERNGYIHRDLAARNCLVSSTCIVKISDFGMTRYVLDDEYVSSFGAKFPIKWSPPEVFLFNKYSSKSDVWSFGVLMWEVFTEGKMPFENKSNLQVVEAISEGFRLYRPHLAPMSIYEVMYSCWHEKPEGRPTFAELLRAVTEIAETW

MAP4K5 (human) = MAP4K5 (human) (UniProt Q9Y4K4)
RIPK2 (human) = RIPK2 (human) (UniProt O43353)
DYRK4 (human) = DYRK4 (human) (UniProt Q9NR20)
Chain of DYRK4 (human) (Q9NR20 whole entry, looked up): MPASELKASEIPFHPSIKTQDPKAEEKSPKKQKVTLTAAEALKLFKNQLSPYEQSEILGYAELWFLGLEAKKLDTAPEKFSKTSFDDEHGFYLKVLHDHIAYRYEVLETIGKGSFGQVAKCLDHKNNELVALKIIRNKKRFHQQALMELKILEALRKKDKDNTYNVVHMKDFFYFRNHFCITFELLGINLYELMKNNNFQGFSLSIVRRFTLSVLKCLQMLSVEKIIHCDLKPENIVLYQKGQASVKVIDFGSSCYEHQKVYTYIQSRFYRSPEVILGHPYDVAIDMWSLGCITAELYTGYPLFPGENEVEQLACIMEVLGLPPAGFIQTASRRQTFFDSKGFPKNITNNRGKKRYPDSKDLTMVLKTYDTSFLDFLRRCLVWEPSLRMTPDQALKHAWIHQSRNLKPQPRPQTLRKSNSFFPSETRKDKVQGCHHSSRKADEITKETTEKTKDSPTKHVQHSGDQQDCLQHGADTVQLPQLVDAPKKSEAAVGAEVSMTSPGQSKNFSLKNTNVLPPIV

LCK (human) = LCK (human) (UniProt P06239)
MAPKAPK5 (human) = MAPKAPK5 (human) (UniProt Q8IW41)
LIMK1 (human) = LIMK1 (human) (UniProt P53667)
PDPK1 (human) = PDPK1 (human) (UniProt O15530)
IGF1R (human) = IGF1R (human) (UniProt P08069)
BTK (human) = BTK (human) (UniProt Q06187)
MAP3K3 (human) = MAP3K3 (human) (UniProt Q99759)
PRKCD (human) = PRKCD (human) (UniProt Q05655)
ZAP70 (human) = ZAP70 (human) (UniProt P43403)
PRKCZ (human) = PRKCZ (human) (UniProt Q05513)
FRK (human) = FRK (human) (UniProt P42685)
PAK2 (human) = PAK2 (human) (UniProt Q13177)
DSTYK (human) = DSTYK (human) (UniProt Q6XUX3)
MARK4 (human) = MARK4 (human) (UniProt Q96L34)
MST4 (human) = MST4 (human) (UniProt Q9P289)
CAMK1G (human) = CAMK1G (human) (UniProt Q96NX5)
MINK1 (human) = MINK1 (human) (UniProt Q8N4C8)
Chain of MINK1 (human) (Q8N4C8 whole entry, looked up): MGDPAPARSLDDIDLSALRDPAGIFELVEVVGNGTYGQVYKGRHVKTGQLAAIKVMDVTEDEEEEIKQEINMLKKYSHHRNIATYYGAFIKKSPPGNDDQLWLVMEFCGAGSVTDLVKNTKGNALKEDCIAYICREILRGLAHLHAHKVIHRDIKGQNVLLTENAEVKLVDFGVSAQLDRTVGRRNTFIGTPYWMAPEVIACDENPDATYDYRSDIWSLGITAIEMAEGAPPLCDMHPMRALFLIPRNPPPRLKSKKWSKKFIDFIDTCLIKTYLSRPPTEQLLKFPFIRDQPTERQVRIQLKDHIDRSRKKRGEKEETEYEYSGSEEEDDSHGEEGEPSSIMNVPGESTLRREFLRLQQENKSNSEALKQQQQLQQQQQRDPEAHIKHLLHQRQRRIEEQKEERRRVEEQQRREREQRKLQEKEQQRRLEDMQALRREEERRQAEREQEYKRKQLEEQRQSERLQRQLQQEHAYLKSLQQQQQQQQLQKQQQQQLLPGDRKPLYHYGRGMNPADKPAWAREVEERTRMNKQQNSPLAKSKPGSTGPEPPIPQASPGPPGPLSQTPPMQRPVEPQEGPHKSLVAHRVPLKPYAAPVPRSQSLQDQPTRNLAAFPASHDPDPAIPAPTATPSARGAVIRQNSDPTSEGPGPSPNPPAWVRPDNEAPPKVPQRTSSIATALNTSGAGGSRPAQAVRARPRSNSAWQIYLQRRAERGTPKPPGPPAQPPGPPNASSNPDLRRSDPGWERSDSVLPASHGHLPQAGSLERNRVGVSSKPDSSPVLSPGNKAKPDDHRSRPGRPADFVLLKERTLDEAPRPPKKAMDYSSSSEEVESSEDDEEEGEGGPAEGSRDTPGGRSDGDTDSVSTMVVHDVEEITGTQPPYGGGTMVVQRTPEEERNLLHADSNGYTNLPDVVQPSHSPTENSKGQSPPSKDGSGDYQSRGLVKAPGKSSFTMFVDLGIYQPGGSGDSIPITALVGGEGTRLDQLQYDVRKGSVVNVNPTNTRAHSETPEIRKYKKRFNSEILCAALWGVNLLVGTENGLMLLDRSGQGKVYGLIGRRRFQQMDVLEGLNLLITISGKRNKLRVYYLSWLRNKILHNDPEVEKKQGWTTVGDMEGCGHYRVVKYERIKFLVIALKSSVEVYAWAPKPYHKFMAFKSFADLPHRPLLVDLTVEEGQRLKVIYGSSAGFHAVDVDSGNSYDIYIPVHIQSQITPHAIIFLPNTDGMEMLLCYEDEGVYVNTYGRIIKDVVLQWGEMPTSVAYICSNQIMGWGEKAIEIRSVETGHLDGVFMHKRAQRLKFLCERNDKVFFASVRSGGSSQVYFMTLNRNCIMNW

MAPK13 (human) = MAPK13 (human) (UniProt O15264)
TGFBR1 (human) = TGFBR1 (human) (UniProt P36897)
STK11 (human) = STK11 (human) (UniProt Q15831)
CLK1 (human) = CLK1 (human) (UniProt P49759)
MERTK (human) = MERTK (human) (UniProt Q12866)
PRKX (human) = PRKX (human) (UniProt P51817)
Chain of PRKX (human) (P51817 whole entry, looked up): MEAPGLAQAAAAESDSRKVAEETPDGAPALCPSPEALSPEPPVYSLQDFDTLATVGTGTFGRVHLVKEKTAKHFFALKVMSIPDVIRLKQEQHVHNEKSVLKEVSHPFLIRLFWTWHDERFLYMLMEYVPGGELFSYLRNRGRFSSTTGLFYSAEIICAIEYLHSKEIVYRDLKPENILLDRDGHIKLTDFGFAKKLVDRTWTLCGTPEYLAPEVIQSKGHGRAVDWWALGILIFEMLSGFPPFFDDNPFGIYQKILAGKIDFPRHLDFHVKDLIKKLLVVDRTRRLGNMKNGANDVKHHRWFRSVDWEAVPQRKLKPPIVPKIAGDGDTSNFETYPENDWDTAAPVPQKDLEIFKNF

PTK2 (human) = PTK2 (human) (UniProt Q05397)
Chain of PTK2 (human) (Q05397 whole entry, looked up): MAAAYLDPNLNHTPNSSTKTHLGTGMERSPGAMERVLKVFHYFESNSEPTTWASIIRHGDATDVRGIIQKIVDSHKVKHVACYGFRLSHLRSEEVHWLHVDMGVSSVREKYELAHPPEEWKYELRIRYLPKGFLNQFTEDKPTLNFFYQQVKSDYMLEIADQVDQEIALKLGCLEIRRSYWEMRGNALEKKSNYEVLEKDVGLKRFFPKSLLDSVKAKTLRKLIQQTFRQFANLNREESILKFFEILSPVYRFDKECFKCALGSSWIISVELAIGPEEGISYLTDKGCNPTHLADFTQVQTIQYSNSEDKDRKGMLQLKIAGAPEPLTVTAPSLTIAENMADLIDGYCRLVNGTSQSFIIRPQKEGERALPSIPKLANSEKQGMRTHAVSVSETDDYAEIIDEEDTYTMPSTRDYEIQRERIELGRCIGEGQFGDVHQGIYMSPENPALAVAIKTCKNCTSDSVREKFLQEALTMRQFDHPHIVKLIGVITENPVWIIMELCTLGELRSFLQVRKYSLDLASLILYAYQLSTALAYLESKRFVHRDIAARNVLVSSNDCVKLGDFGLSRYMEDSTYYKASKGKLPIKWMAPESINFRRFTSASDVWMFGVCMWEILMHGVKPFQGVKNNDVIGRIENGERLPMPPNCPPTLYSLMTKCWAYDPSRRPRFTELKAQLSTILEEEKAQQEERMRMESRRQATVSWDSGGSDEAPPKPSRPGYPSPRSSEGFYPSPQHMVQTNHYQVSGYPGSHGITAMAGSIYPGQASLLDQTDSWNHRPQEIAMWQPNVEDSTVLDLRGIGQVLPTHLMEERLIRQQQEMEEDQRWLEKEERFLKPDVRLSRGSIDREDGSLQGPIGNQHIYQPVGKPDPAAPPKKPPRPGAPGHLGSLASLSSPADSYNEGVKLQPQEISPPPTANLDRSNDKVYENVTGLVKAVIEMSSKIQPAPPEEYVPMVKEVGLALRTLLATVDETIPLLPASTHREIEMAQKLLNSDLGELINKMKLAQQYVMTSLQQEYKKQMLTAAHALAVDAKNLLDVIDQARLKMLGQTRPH

CDC42BPB (human) = CDC42BPB (human) (UniProt Q9Y5S2)

Chain of TAOK2 (human) (Q9UL54 whole entry, looked up): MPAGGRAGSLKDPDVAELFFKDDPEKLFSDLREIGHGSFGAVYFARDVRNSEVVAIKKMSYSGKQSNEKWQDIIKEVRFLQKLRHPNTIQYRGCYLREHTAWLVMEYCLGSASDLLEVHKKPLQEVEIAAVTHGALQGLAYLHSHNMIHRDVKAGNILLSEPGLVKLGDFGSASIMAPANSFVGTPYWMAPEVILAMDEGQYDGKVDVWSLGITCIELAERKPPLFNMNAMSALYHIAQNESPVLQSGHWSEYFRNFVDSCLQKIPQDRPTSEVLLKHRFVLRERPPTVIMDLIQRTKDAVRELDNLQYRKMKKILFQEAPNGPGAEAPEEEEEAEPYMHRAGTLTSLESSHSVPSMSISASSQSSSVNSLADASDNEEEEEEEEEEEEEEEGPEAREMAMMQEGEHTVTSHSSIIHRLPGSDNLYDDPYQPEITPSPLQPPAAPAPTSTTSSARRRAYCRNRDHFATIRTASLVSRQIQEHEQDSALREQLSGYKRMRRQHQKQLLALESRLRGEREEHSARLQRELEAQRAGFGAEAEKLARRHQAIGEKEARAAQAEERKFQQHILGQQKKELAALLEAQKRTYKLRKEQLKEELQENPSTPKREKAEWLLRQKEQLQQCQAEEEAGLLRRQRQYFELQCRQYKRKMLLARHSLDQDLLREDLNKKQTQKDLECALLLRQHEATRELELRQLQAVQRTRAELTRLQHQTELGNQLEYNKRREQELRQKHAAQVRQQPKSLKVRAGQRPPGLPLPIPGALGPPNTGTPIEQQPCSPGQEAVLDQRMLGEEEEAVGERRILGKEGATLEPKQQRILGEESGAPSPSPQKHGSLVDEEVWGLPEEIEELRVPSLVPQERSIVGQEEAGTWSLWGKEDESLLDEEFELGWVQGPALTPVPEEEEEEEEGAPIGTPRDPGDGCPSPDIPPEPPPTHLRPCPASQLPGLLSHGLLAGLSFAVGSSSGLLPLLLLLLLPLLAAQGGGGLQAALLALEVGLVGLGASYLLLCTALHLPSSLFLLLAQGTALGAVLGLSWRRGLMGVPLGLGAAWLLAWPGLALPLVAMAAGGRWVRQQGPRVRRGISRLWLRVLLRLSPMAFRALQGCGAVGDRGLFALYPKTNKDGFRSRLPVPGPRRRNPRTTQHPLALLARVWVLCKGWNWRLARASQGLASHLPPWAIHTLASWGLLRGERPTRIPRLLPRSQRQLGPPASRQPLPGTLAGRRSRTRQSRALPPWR

COc1ccc2c(c1)c(C1=C(c3c[nH]c4ccccc34)C(=O)NC1=O)cn2CCCN(C)C
residual activity (TSSK2 (human)): 85.5%
residual activity (MAP3K2 (human)): 80.6%
residual activity (PDGFRB (human)): 75.8%
residual activity (TAOK2 (human)): 80.8%
residual activity (IKBKB (human)): 99.6%
residual activity (RPS6KA6 KD1 KD2 (human)): 4.52%
residual activity (PLK3 (human)): 93%
residual activity (EPHB2 (human)): 78.7%
residual activity (GSK3B (human)): 32%
residual activity (MAP3K7 TAB1 (human)): 102%
residual activity (RPS6KA5 KD2 (human)): 61.3%
residual activity (AURKC (human)): 90.4%
residual activity (RET (human)): 79.9%
residual activity (TXK (human)): 82.8%
residual activity (MAP4K5 (human)): 27.7%
residual activity (RIPK2 (human)): 70.2%
residual activity (DYRK4 (human)): 97.3%
residual activity (LCK (human)): 93.6%
residual activity (MAPKAPK5 (human)): 98.1%
residual activity (LIMK1 (human)): 81.8%
residual activity (PDPK1 (human)): 76.7%
residual activity (IGF1R (human)): 115%
residual activity (BTK (human)): 90.2%
residual activity (MAP3K3 (human)): 82.8%
residual activity (PRKCD (human)): 1.67%
residual activity (ZAP70 (human)): 90.3%
residual activity (PRKCZ (human)): 78.2%
residual activity (FRK (human)): 91.3%
residual activity (PAK2 (human)): 108%
residual activity (DSTYK (human)): 82.8%
residual activity (MARK4 (human)): 95.9%
residual activity (MST4 (human)): 40.4%
residual activity (CAMK1G (human)): 95%
residual activity (MINK1 (human)): 78.6%
residual activity (MAPK13 (human)): 108%
residual activity (TGFBR1 (human)): 101%
residual activity (STK11 (human)): 101%
residual activity (CLK1 (human)): 48.2%
residual activity (MERTK (human)): 84%
residual activity (PRKX (human)): 102%
residual activity (PTK2 (human)): 88.2%
residual activity (CDC42BPB (human)): 89.4%

COc1cc2ncnc(Nc3ccc(Oc4ccccc4)cc3)c2cc1OC
residual activity (TSSK2 (human)): 103%
residual activity (MAP3K2 (human)): 102%
residual activity (PDGFRB (human)): 95.6%
residual activity (TAOK2 (human)): 97.8%
residual activity (IKBKB (human)): 106%
residual activity (RPS6KA6 KD1 KD2 (human)): 111%
residual activity (PLK3 (human)): 97.1%
residual activity (EPHB2 (human)): 99.7%
residual activity (GSK3B (human)): 109%
residual activity (MAP3K7 TAB1 (human)): 102%
residual activity (RPS6KA5 KD2 (human)): 106%
residual activity (AURKC (human)): 93.9%
residual activity (RET (human)): 40.6%
residual activity (TXK (human)): 78%
residual activity (MAP4K5 (human)): 70.6%
residual activity (RIPK2 (human)): 55.5%
residual activity (DYRK4 (human)): 97.3%
residual activity (LCK (human)): 4.72%
residual activity (MAPKAPK5 (human)): 98%
residual activity (LIMK1 (human)): 89%
residual activity (PDPK1 (human)): 111%
residual activity (IGF1R (human)): 102%
residual activity (BTK (human)): 38.8%
residual activity (MAP3K3 (human)): 94.5%
residual activity (PRKCD (human)): 96.8%
residual activity (ZAP70 (human)): 97%
residual activity (PRKCZ (human)): 100%
residual activity (FRK (human)): 72.2%
residual activity (PAK2 (human)): 78.7%
residual activity (DSTYK (human)): 91.6%
residual activity (MARK4 (human)): 105%
residual activity (MST4 (human)): 102%
residual activity (CAMK1G (human)): 101%
residual activity (MINK1 (human)): 101%
residual activity (MAPK13 (human)): 103%
residual activity (TGFBR1 (human)): 97.1%
residual activity (STK11 (human)): 93.6%
residual activity (CLK1 (human)): 100%
residual activity (MERTK (human)): 51.2%
residual activity (PRKX (human)): 95.2%
residual activity (PTK2 (human)): 98.1%
residual activity (CDC42BPB (human)): 106%

O=C1NC(=O)c2c1c1c3ccccc3[nH]c1n1cncc21
residual activity (TSSK2 (human)): 99.1%
residual activity (MAP3K2 (human)): 97.9%
residual activity (PDGFRB (human)): 68.4%
residual activity (TAOK2 (human)): 89.4%
residual activity (IKBKB (human)): 95.9%
residual activity (RPS6KA6 KD1 KD2 (human)): 33.4%
residual activity (PLK3 (human)): 48.2%
residual activity (EPHB2 (human)): 86.1%
residual activity (GSK3B (human)): 30.8%
residual activity (MAP3K7 TAB1 (human)): 63.4%
residual activity (RPS6KA5 KD2 (human)): 87.6%
residual activity (AURKC (human)): 47.6%
residual activity (RET (human)): 42%
residual activity (TXK (human)): 76.4%
residual activity (MAP4K5 (human)): 13.5%
residual activity (RIPK2 (human)): 67.5%
residual activity (DYRK4 (human)): 107%
residual activity (LCK (human)): 87.1%
residual activity (MAPKAPK5 (human)): 123%
residual activity (LIMK1 (human)): 74.7%
residual activity (PDPK1 (human)): 89%
residual activity (IGF1R (human)): 76.8%
residual activity (BTK (human)): 83.9%
residual activity (MAP3K3 (human)): 86.9%
residual activity (PRKCD (human)): 65%
residual activity (ZAP70 (human)): 87.8%
residual activity (PRKCZ (human)): 84.8%
residual activity (FRK (human)): 96.8%
residual activity (PAK2 (human)): 99%
residual activity (DSTYK (human)): 106%
residual activity (MARK4 (human)): 26.8%
residual activity (MST4 (human)): 69.4%
residual activity (CAMK1G (human)): 94.7%
residual activity (MINK1 (human)): 48.2%
residual activity (MAPK13 (human)): 107%
residual activity (TGFBR1 (human)): 96.3%
residual activity (STK11 (human)): 45.2%
residual activity (CLK1 (human)): 84%
residual activity (MERTK (human)): 53.9%
residual activity (PRKX (human)): 87.8%
residual activity (PTK2 (human)): 56.9%
residual activity (CDC42BPB (human)): 94.8%
